{
  "source": "patent US20050221381A1",
  "about": "“Method for isolating ligands” (priority 2002, published 2005)",
  "key": {"[1]": {"settings": "in vivo; cited from earlier work"}, "CMV": {"system": "CMV", "settings": "cited from earlier work"}, "[2]": {"system": "CMV mutants resistant to Ganciclovir, Cidofuvir and Foscarnet", "settings": "cited from earlier work"}, "[3]": {"system": "CD8+ T-cells, HLA-A*0201 positive T2 cells", "settings": "interferon-gamma ELIspot"}, "HLA-A2": {"molecular_target": "HLA-A2 (Homo sapiens, UniProt P04439, D140Y/D185E/D98H/E176V/E277Q/G131W/G231S/I119V/I121R/I166T/I218V/L300P/L318F/N151K/N90K/P208A/P217A/Q86G/Q94H/R138H/R169H/T345S)", "settings": "cited from earlier work"}, "isolated CD4+ T cells": {"system": "isolated CD4+ T cells", "experiment": "Synthetic IFN-γ Elispot assay with sHLA DRB1*0401 and anti CD28", "format": "cell-based, human", "settings": "sHLA DRB1*0401 loaded with peptide, vs negative control peptide p84 (FIG. 5a)"}, "[4]": {"molecular_target": "T1, soluble DRB1*0401 molecules (Homo sapiens, UniProt P01903+P01911, A100K/A169T/F76Y/I96L/K127E/L162R/M171V/N62H/P40V/Q125Y/R42H/S133A/S149N/S66Y/V115G/V209L/W38E)", "T1 construct": "Soluble HLA class I A*0201 and HLA class II DRA1*0101/DRB1*0101/Ii, DRA1*0101/DRB1*0401/Ii and DRA1*0101/DRB1*0404/Ii molecules were expressed in SC-2 cells; made in house; host or cells: SC-2 cells", "experiment": "Epitope capture from peptide mixtures, gel filtration and MALDI-TOF MS of bound peptides", "format": "binding", "excerpt": "After peptide binding reaction with soluble HLA molecules, HLA-peptide complexes were separated from free peptides by gel-filtration chromatography on Superdex-200 column (AKTAdesign, Amersham Pharmacia Biotech). HLA-containing fractions were collected, and bound peptides were reconstituted from the complexes by adding TFA to the final concentration of 1%. Peptides were desolted by Ziptip purification and analyzed by MALDI-TOF mass-spectrometry.\nSecond, the ability to capture peptides binding to HLA class II molecules from the mixture of two high affinity ligands was tested. The binding reaction contained 1 μM of soluble DRB1*0401 molecules and 5 μM of each YAR and 1242 peptide. After the HLA-peptide complexes were formed, they were separated from the excess of free peptides by gel filtration chromatography. Fractions containing MHC molecules were collected. Bound peptides were eluted from the complexes and analyzed by mass-spectrometry.\nThird, it was investigated if the binding capacity of the high affinity ligand would be influenced by the excess of low affinity peptide. […] Peptide binding was assessed by SDS-stability assay and verified by MS analysis (FIG. 3).\nThe final concentration of each peptide in binding reaction was 5 μM, except 1236 added in 55 μM, meaning that the concentration of each individual binding peptide was 20-fold lower than final concentration of all peptides. DRB1*0401 molecules were added to 1 μM. The formation of MHC-peptide complexes was evaluated as described above, using single peptides as controls (FIG. 4). […] The result of this analysis yielded the two peptides with highest binding affinities: 1242 and YAR (see Table 1). The peptides with moderate and/or low affinities were not found in the complexes, probably due to the high concentration of strong competitors used in this assay."}, "[5]": {"molecular_target": "T2, soluble DRB1*0401 molecules (DR4) (Homo sapiens, UniProt P01903+P01911, A100K/A169T/F76Y/I96L/K127E/L162R/M171V/N62H/P40V/Q125Y/R42H/S133A/S149N/S66Y/V115G/V209L/W38E)", "T2 construct": "Soluble HLA class I A*0201 and HLA class II DRA1*0101/DRB1*0101/Ii, DRA1*0101/DRB1*0401/Ii and DRA1*0101/DRB1*0404/Ii molecules were expressed in SC-2 cells; made in house; host or cells: SC-2 cells", "format": "binding", "parameters": "key to DR4 binding: +++: high binding affinity; ++: moderate binding affinity; +: low binding affinity; −: no binding", "settings": "SDS-stability assay"}, "[6]": {"system": "PBMC from CMV seropositive donors", "format": "cell-based, human"}, "[7]": {"system": "DRB1*0401, DRB1*0101, DRB1*0404, DRB1*0701 and DRB1*1101", "experiment": "Binding to soluble HLA molecules of different allels (promiscuity)", "parameters": "species or system human"}, "[8]": {"molecular_target": "T3, soluble DRB1*0404 molecules (Homo sapiens, UniProt P01903+P01911, A100R/A169T/F76Y/I96L/K127E/L162R/M171V/N62H/P40V/Q125Y/R42H/S133A/S149N/S66Y/V209L/W38E)", "T3 construct": "Soluble HLA class I A*0201 and HLA class II DRA1*0101/DRB1*0101/Ii, DRA1*0101/DRB1*0401/Ii and DRA1*0101/DRB1*0404/Ii molecules were expressed in SC-2 cells; made in house; host or cells: SC-2 cells", "experiment": "Peptide binding assay, SDS-stability assay"}, "[9]": {"molecular_target": "T2, soluble DRB1*0401 molecules (DR4)", "format": "binding", "parameters": "key: +++: high binding affinity; ++: moderate binding affinity; +: low binding affinity; −: no binding", "settings": "individual pp65 15mer, SDS-stability assay"}, "[10]": {"molecular_target": "T3, soluble DRB1*0404 molecules", "experiment": "Peptide binding assay, SDS-stability assay", "parameters": "key: −: no binding; +/−: weak binding; +: intermediate binding; ++: strong binding", "settings": "individual pp65 15mer"}, "[11]": {"system": "PBMC (CD4 and CD8 positive T-cell compartments)", "experiment": "Intracellular IFN-γ staining combined with surface staining for CD4, CD8, CD69 (FACS)", "format": "cell-based, human", "settings": "donor 10788, peptide 80 μg/ml (FIG. 11)", "method": "To distinguish between CD8-positive CTL mediated or CD4-positive HTL mediated reactivity, intracellular cytokine staining combined with staining for surface markers was performed: after thawing, PBMNC were kept overnight (37° C., 5% CO2) in RPMI1640 with 10% human serum type AB (BioWhittaker). Next day aliquots of 2 million PBMNC were incubated with peptide (80 μg/ml) or Concanavalin A (SIGMA). After 1 h, 10 μg/ml brefeldin A (SIGMA) were added and incubation was continued for 5 hours. Surface staining for CD4 (phycoerythrin), CD8 (cychrome), CD69 (allophycocyanine) was done with antibodies labelled as indicated (Pharmingen, San Diego, Calif., USA). After fixation with 1% para-formaldehyde in PBS, cells were permeabilized by incubating for 15 min in 0.5% BSA/0.1% Na-azide/0.1% saponin in PBS. Intracellular cytokines were stained with anti-IFN-γ (FITC) antibody 4S.B3 (Pharmingen). Samples (100,000 events in the lymphocyte gate) were read on a FACScalibur (Becton Dickinson).\nFIG. 11: Confirmation of simultaneous CD4+ and CD8+ T-cell responses against CMVpp65 15mers 469, 470 by intracellular IFN-γ staining. PBMC from 2 donors (10687, 10788) were stimulated with either ConA as positive control (1st column), 15mers containing both putative class I and class II epitopes (columns 2 and 3) or medium as negative control (right column). Cells were stained for intracellular IFN-γ (x-axis) or surface the T-cell differentiation markers CD4 or CD8 (y-axis). Percentage in upper-right quadrant is indicated, numbers significant over background are shown boldface."}},
  "note": "“Also recorded” adds a separate entry of the source.",
  "data": [
    {"compound": "CC(C)[C@H](N)C(=O)OCC(CO)OCn1cnc2c(=O)nc(N)[nH]c21", "note": "(stereo partly drawn) [Valganciclovir]", "values": [
      {"measurement": "Oral bioavailability", "setting": "[1]", "value": "markedly increased"},
      {"measurement": "Incidence of CMV disease", "setting": "CMV; kidney transplant patients, given for three months", "value": "reduced the incidence of CMV disease"},
      {"measurement": "Proportion of patients with biopsy-proven rejection", "setting": "CMV; six months after transplantation", "value": "significant reduction"}
    ]},
    {"compound": "Fomivirsen", "values": [
      {"measurement": "Efficacy against multidrug resistant mutants", "setting": "[2]", "value": "effective against such mutants"}
    ]},
    {"compound": "RLLQTGIHV", "values": [
      {"measurement": "Confirmation as HLA-A*0201 epitope / induction of functional T-cells (in words)", "setting": "[3]", "value": "induce functional T-cells"},
      {"measurement": "Binding to HLA-A2 / stabilisation of HLA-A2/β2m/peptide complex", "setting": "HLA-A2", "value": "can stabilize; also recorded: has been demonstrated"}
    ]},
    {"compound": "YNINISLPSYYPDQKSL [Peptide 1242]", "values": [
      {"measurement": "Number of induced IFN-γ spots", "setting": "isolated CD4+ T cells", "value": "significantly above the spontaneous IFN-γ secretion"},
      {"measurement": "Formation of stable MHC-complexes in presence of excess low affinity peptide", "setting": "[4]; 1242 5 to 50 μM, 100 μM peptide 1236 (2-20 fold excess), 1 μM DRB1*0401", "value": "does not impede the formation of stable MHC-complexes"},
      {"measurement": "Peptides captured from pool of 10 peptides, MS analysis", "setting": "[4]; each peptide 5 μM, 1236 55 μM, DRB1*0401 1 μM", "value": "captured by DR4 molecules"},
      {"measurement": "Peptides found in complexes with MHC molecules by MS", "setting": "[4]; mixture of two ligands, 5 μM each, 1 μM DRB1*0401", "value": "revealed in the complexes with MHC molecules"},
      {"measurement": "Binding to soluble DRB1*0401 molecules (in words)", "setting": "[5]", "value": "highest"},
      {"measurement": "DR4 binding", "setting": "[5]; direct binding of individual peptides, compared with YAR and HA306-318", "value": "+++"}
    ]},
    {"compound": "EDSDNEIHNPAVFTW [Peptide 470]", "values": [
      {"measurement": "Induction of IFN-gamma secretion in T cells / PBMC from CMV seropositive donors", "setting": "[6]", "value": "induce IFN-gamma secretion; also recorded: can induce functional, IFN-gamma secreting T cells in humans; also recorded: induce INF-gamma production"},
      {"measurement": "Affinity for several HLA molecules (promiscuity)", "setting": "[7]", "value": "affinity for at least two HLA molecules"},
      {"measurement": "Binding to DRB1*0404 (in words)", "setting": "[8]", "value": "found to bind to DRB1*0404; also recorded: weakly binding to DRB1*0404"},
      {"measurement": "Binding to DRB1*0401", "setting": "[9]", "value": "−"},
      {"measurement": "Binding to DRB1*0404", "setting": "[10]", "value": "+/−"},
      {"measurement": "Intracellular IFN-γ in CD4 and CD8 positive T-cell compartments", "setting": "[11]", "value": "significant IFN-γ secretion in both the CD8 and CD4 positive T-cell compartments"}
    ]}
  ]
}
